{
  "source": "patent US11400091B2",
  "about": "“AXL kinase inhibitors and use of the same” (Sumitomo Pharma Oncology, Inc., priority 2018, dated 2022)",
  "key": {"[1]": {"system": "CYP26 mRNA in MV4-11 leukemia cells", "assay": "CYP26 mRNA expression (RT-PCR)", "type": "cell-based", "conditions": "1 μM RA; 6 hours"}, "ES-2 cells": {"system": "ES-2 cells", "assay": "Scratch assay, migration of ovarian tumor cells", "type": "cell-based", "conditions": "6 hours pre-treatment; images 18 hours post-scratching; BMS-777607 up to 10 μM"}, "H1650 NSCLC cell line": {"system": "H1650 NSCLC cell line", "assay": "H1650 cell viability (CellTiter-Glo)", "type": "cell-based", "conditions": "Homo sapiens, NCI-H1650"}, "H1650": {"system": "H1650", "assay": "H1650 NSCLC xenograft", "type": "in vivo, athymic nude mice", "conditions": "21-day regimen; tartrate salt 40 mpk qd; osimertinib 20 mpk qd", "protocol": "H1650 cells were injected subcutaneously into the hind flank of athymic nude mice at 1×10^7 cells/mouse. Once tumor volumes exceeded 100 mm^3, mice were randomized into study arms.\nTo assess the combination in vivo, the H1650 xenograft model for NSCFC was utilized. […] Slug and E-cadherin mRNA expression was assessed by standard qPCR technique. […] Slug and E-cadherin protein expression was assessed by standard immunoblotting technique.\n(§1) Tumor volumes and bodyweights were assessed twice weekly.\nas §1"}, "pH solubility": {"assay": "pH solubility", "type": "physicochemical", "conditions": "for solubility at 24 h: 37 °C, thermodynamic from solid; for FC (form change) of residual solid: 24 hours"}, "[2]": {"assay": "Moisture sorption isotherm of crystalline forms", "type": "physicochemical"}, "[3]": {"assay": "Kinetic solubility in bio-relevant buffers", "type": "physicochemical", "conditions": "for solubility at 24 h: 37 °C, thermodynamic from solid"}, "[4]": {"assay": "Single dose toxicity study", "type": "in vivo", "conditions": "single oral 150 mg/kg (free base equivalent); by the end of the recovery period", "protocol": "The FB dose levels evaluated were 20, 50, and 150 mg/kg. The test articles were formulated with 1% Tween 80/5% TPGS/Sterile Water for Injection (v/v/v) and the study designed as indicated in Table 15 below:\nEndpoints in the study consisted of mortality checks, clinical observations, body weight measurements and toxicokinetics. Following a 7-day post-dose observation period, animals were euthanized, necropsied and macroscopic observations recorded."}, "[5]": {"assay": "Solid state stability at 40° C./75% RH", "type": "physicochemical", "protocol": "Agilent 1260 HPLC was utilized and detailed chromatographic conditions for purity and solubility measurement are listed in Table 13 below.\nThe table below summarizes the characterization and solid state stability results observed for FB and Forms A, B, and D. Samples were prepared and data was obtained according to the procedures and processes listed above unless otherwise specified. More procedures, processes, and results are listed below in Table 14."}, "[6]": {"assay": "7-day repeat dose toxicity and toxicokinetics", "type": "in vivo, CD-1 mice", "conditions": "high dose level (80 mg/kg/day)", "text": "The test articles were formulated with 1% Tween 80/5% TPGS/Sterile Water for Injection (v/v/v) and the study designed as indicated in Table 16 below:\nEndpoints during the study consisted of clinical observations, body weight, and toxicokinetics. Animals euthanized due to excessive body weight loss in the toxicology-designated groups were euthanized, necropsied, and macroscopic observations recorded."}, "[7]": {"assay": "Dynamic Vapor Sorption (DVS)", "type": "physicochemical", "conditions": "25° C.", "protocol": "The Dynamic Vapour Sorption studies were performed using a Surface Measurement Systems Ltd. DVS-1 No Video, equipment #2126. The sample is loaded into balance pan, typically 20-30 mg, and equilibrated at 0% RH. […] After completion of the sorption cycle, the sample was dried using the same method. The software used for data collection is DVSWin v3.01 No Video. Data analysis is performed using DVS Standard Analysis Suite v6.3.0 (Standard)."}, "[8]": {"assay": "Stability studies of crystalline forms (HPLC)", "type": "physicochemical", "conditions": "for Stability by HPLC: mono-tartrate salt"}},
  "data": [
    {"compound": "Retinyl Acetate [RA]", "values": [
      {"measurement": "induction in mRNA expression levels of CYP26", "setting": "[1]", "value": "~4.3", "unit": "fold"}
    ]},
    {"compound": "CCOc1ccn(-c2ccc(F)cc2)c(=O)c1C(=O)Nc1ccc(Oc2ccnc(N)c2Cl)c(F)c1", "note": "[BMS-777607]", "values": [
      {"measurement": "migration of ES-2 cells", "setting": "ES-2 cells", "value": "did not inhibit migration"}
    ]},
    {"compound": "C=CC(=O)Nc1cc(Nc2nccc(-c3cn(C)c4ccccc34)n2)c(OC)cc1N(C)CCN(C)C", "note": "[osimertinib]", "values": [
      {"measurement": "EC50", "setting": "H1650 NSCLC cell line", "value": 2200, "unit": "nM"},
      {"measurement": "IC50", "setting": "H1650 NSCLC cell line; single agent, 72 hours", "value": 2200, "unit": "nM"},
      {"measurement": "tumor growth inhibition (% TGI), single agent", "setting": "H1650", "value": 121, "unit": "%"}
    ]},
    {"compound": "CN1CCN(Cc2ccc(Nc3ncc(Cl)c(Nc4ccccc4S(=O)(=O)N(C)C)n3)cc2)CC1.O=C(O)C(O)C(O)C(=O)O", "note": "[Form D, 2-((5-chloro-2-((4-((4-methylpiperazin-1-yl)methyl)phenyl)amino)pyrimidin-4-yl)amino)-N,N-dimethylbenzenesulfonamide mono-tartrate salt]", "values": [
      {"measurement": "solubility at 24 h", "setting": "pH solubility; pH 2.0 buffer, pH 2, aqueous buffer", "value": "> 6800", "unit": "µg/mL"},
      {"measurement": "FC (form change) of residual solid", "setting": "pH solubility; pH 4.0", "value": "Yes"},
      {"measurement": "solubility at 24 h", "setting": "pH solubility; pH 4.0 buffer, pH 4, aqueous buffer", "value": 230, "unit": "µg/mL"},
      {"measurement": "FC (form change) of residual solid", "setting": "pH solubility; pH 6.0", "value": "Yes"},
      {"measurement": "solubility at 24 h", "setting": "pH solubility; pH 6.0 buffer, pH 6, aqueous buffer", "value": 1900, "unit": "µg/mL"},
      {"measurement": "FC (form change) of residual solid", "setting": "pH solubility; pH 8.0", "value": "Yes"},
      {"measurement": "solubility at 24 h", "setting": "pH solubility; pH 8.0 buffer, pH 8, aqueous buffer", "value": 5, "unit": "µg/mL"},
      {"measurement": "FC (form change) of residual solid", "setting": "pH solubility; pH 10.0", "value": "Yes"},
      {"measurement": "solubility at 24 h", "setting": "pH solubility; pH 10.0 buffer, pH 10, aqueous buffer", "value": 53, "unit": "µg/mL"},
      {"measurement": "Moisture sorption isotherm", "setting": "[2]", "value": "hygroscopic"},
      {"measurement": "crystal form by XRPD after the moisture absorption/desorption cycle", "setting": "[2]", "value": "transformed to the other forms"},
      {"measurement": "solubility at 24 h", "setting": "[3]; FaSSIF, 24 hours", "value": 3900, "unit": "µg/mL"},
      {"measurement": "FC (form change) of residual solid", "setting": "[3]; FaSSIF, 24 hours", "value": "Yes"},
      {"measurement": "solubility at 24 h", "setting": "[3]; FeSSIF, 24 hours", "value": 4600, "unit": "µg/mL"},
      {"measurement": "solubility at 24 h", "setting": "[3]; SGF, simulated gastric fluid, 24 hours", "value": "> 11000", "unit": "µg/mL"},
      {"measurement": "solubility kinetic", "setting": "[3]; bio-relevant buffers (FaSSIF, fassgf or other biorelevant, thermodynamic from solid), FaSSIF, FeSSIF and SGF, 37° C., read-out: kinetic solubility in all biorelevant buffers", "value": "> 5000", "unit": "µg/mL"},
      {"measurement": "mortality", "setting": "[4]", "value": 100, "unit": "%"},
      {"measurement": "Form Change at 3 weeks", "setting": "[5]; 3 weeks under 40° C./75% RH", "value": "No"},
      {"measurement": "HPLC Purity at 3 weeks (area %)", "setting": "[5]; 3 weeks under 40° C./75% RH", "value": 98.3, "unit": "area %"},
      {"measurement": "Initial HPLC Purity (area %)", "setting": "[5]; initial, before storage", "value": 98.8, "unit": "area %"},
      {"measurement": "mortality", "setting": "[6]", "value": "one mouse died"},
      {"measurement": "water uptake at 80% RH", "setting": "[7]; DVS, mono-tartrate salt", "value": 5.2, "unit": "%"},
      {"measurement": "FC (form change) after DVS", "setting": "[7]; up to 80% RH", "value": "Yes"},
      {"measurement": "Stability Results", "setting": "[8]; 40° C.", "value": 98.2, "unit": "%"},
      {"measurement": "Stability Results", "setting": "[8]; 40° C./75% RH", "value": 98.4, "unit": "%"},
      {"measurement": "Stability Results", "setting": "[8]; 60° C.", "value": 98.2, "unit": "%"},
      {"measurement": "Stability Results", "setting": "[8]; 60° C./75% RH", "value": 98.2, "unit": "%"},
      {"measurement": "Stability Results", "setting": "[8]; Initial", "value": 98.4, "unit": "%"},
      {"measurement": "Stability by HPLC", "setting": "[8]; listed as D", "value": "Stable"},
      {"measurement": "Stability by HPLC", "setting": "[8]", "value": "No significant changes"}
    ]}
  ]
}
